Test results reported in US20210330611A1, “THERAPY FOR NEUROLOGICAL DISEASES/DISORDERS” (priority 2020, published 2021).
Where a name gives a salt, the structure may show the parent alone. Read-outs that look alike come from different tables or passages of the source.

Tests used:
[1] = test system: fibrin-induced microglia activation; experiment: Image-based assay of fibrin-induced microglia activation (HTS and dose response); assay type: cell-based, rat; settings: for inhibition at 10 µM: Rattus norvegicus, Microglia, read-out: Fibrin % inhibition
[2] = test system: LPS-induced microglia activation; experiment: Image-based assay of LPS-induced microglia activation (HTS and dose response); assay type: cell-based, rat; settings: for inhibition at 10 µM: Rattus norvegicus, Microglia, read-out: LPS % inhibition
[3] = test system: fibrin- and LPS-induced microglia activation; experiment: cells; assay type: cell-based, rat
primary rat microglia [4] = test system: primary rat microglia;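 as to Fibrin % cell toxicity: share of dead cells sized under 150 µm2 at 10 µM in fibrin-stimulated microglia HTS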
primary rat microglia [5] = test system: primary rat microglia; remark: listed apart in the source;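 as to Fibrin % cell toxicity: share of dead cells sized under 150 µm2 at 10 µM in fibrin-stimulated microglia HTS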
[6] = primary microglia HTS, fibrin stimulation, compounds at 10 μM
[7] = primary microglia HTS, LPS stimulation, compounds at 10 μM
[8] = quadrant by fibrin and LPS inhibition, HTS at 10 μM

Row | Structure (SMILES) | Quadrant (FIG. 5b) [3, 8] | inhibition at 10 µM [1, 6] | inhibition at 10 µM [2, 7] | Fibrin % cell toxicity (primary rat microglia [4]; rat) | LPS % cell toxicity (primary rat microglia [5]; rat) | Quadrant (FIG. 5b) [3] | other results
1 | Nc1ncn([C@@H]2O[C@H](CO)[C@@H](O)[C@H]2O)c(=O)n1 [5-azacytidine, Azacitidine] | Q4 |  |  |  |  |  | Fibrin % inhibition [1, 6]: 9%; LPS % inhibition [2, 7]: −7%; Fibrin % cell toxicity (primary rat microglia [4]): 1%; LPS % cell toxicity (primary rat microglia [5]): 0%
2 | C[C@H]1O[C@@H](n2cc(F)c(=O)[nH]c2=O)[C@H](O)[C@@H]1O [5-fluoro-5′-deoxyuridine, Doxifluridine] | Q4 |  |  |  |  |  | Fibrin % inhibition [1, 6]: −27%; LPS % inhibition [2, 7]: 9%; Fibrin % cell toxicity (primary rat microglia [4]): 1%; LPS % cell toxicity (primary rat microglia [5]): 0%
3 | Cc1cc(=O)oc2cc(O)ccc12 [7-hydroxy-4-methyl-2H-chromen-2-one] | Q4 | 12% | 4% | 0% | 0% |  | 
4 | CCCC(=O)Nc1ccc(OCC(O)CNC(C)C)c(C(C)=O)c1 (centres unmarked) [Acebutolol] | Q4 | -11% | 19% | 1% | 0% |  | 
5 | CC(=O)Nc1ccc(S(=O)(=O)c2ccc(NC(C)=O)cc2)cc1 [Acedapsone] |  |  |  | 0% | 0% | Q4 | inhibition at 10 µM [1]: 0%; inhibition at 10 µM [2]: 4%
6 | CC1=CC(=O)NS(=O)(=O)O1 [Acesulfame Potassium] |  |  |  | 0% | 0% | Q4 | inhibition at 10 µM [1]: -3%; inhibition at 10 µM [2]: 16%
7 | CC(=O)Nc1ccccc1 [Acetanilide] |  |  |  | 0% | 0% | Q4 | inhibition at 10 µM [1]: -31%; inhibition at 10 µM [2]: 9%
8 | CC(=O)Nc1nnc(S(N)(=O)=O)s1 [Acetazolamide] |  |  |  | 0% | 1% | Q4 | inhibition at 10 µM [1]: -12%; inhibition at 10 µM [2]: 4%
9 | CC(=O)c1ccc(S(=O)(=O)NC(=O)NC2CCCCC2)cc1 [Acetohexamide] | Q4 | 12% | 14% | 1% | 0% |  | 
10 | CC(=O)OCC[N+](C)(C)C [Acetylcholine] | Q4 | -39% | 9% | 0% | 0% |  | 
11 | CC[C@H]1[C@@H]2C[C@H]3[C@@H]4N(C)c5ccccc5[C@]45C[C@@H]([C@H]2[C@H]5O)N3[C@@H]1O [Ajmaline] | Q4 | -6% | 13% | 1% | 0% |  | 
12 | Oc1ncnc2[nH]ncc12 [Allopurinol] | Q4 | -17% | 16% | 1% | 0% |  | 
13 | Cc1c(C)c2c(c(C)c1O)CCC(C)(CCCC(C)CCCC(C)CCCC(C)C)O2 (stereo not drawn) [Alpha-tochopherol] | Q4 |  |  |  |  |  | Fibrin % inhibition [1, 6]: 18%; LPS % inhibition [2, 7]: 21%; Fibrin % cell toxicity (primary rat microglia [4]): 0%; LPS % cell toxicity (primary rat microglia [5]): 0%
14 | C=CCc1ccccc1OCC(O)CNC(C)C (centres unmarked) [Alprenolol Hydrochloride, Alprenolol] | Q4 |  |  |  |  |  | Fibrin % inhibition [1, 6]: 1%; LPS % inhibition [2, 7]: 13%; Fibrin % cell toxicity (primary rat microglia [4]): 0%; LPS % cell toxicity (primary rat microglia [5]): 1%
15 | O=C(O)CN1C(=O)c2cccc3cccc(c23)C1=O [Alrestatin] |  |  |  | 1% | 0% | Q4 | inhibition at 10 µM [1]: 11%; inhibition at 10 µM [2]: 12%
16 | NCCCNCCSP(=O)(O)O [Amifostine] | Q4 | -38% | 15% | 0% | 0% |  | 
17 | N=C(N)NC(=O)c1nc(Cl)c(N)nc1N [Amiloride] | Q4 | 20% | 7% | 1% | 0% |  | 
18 | NCCCCCC(=O)O [Aminocaproic Acid] |  |  |  | 1% | 0% | Q4 | inhibition at 10 µM [1]: 5%; inhibition at 10 µM [2]: 7%
19 | NCC(=O)CCC(=O)O [Aminolevulinic acid] | Q4 | -4% | 10% | 1% | 0% |  | 

Row | Structure (SMILES) | Quadrant (FIG. 5b) [3, 8] | inhibition at 10 µM [1, 6] | inhibition at 10 µM [2, 7] | Fibrin % cell toxicity (primary rat microglia [4]; rat) | LPS % cell toxicity (primary rat microglia [5]; rat) | Quadrant (FIG. 5b) [3] | other results
20 | Cn1c(=O)c2[nH]cnc2n(C)c1=O [Aminophylline, Theophylline] |  |  |  |  |  | Q4 | Fibrin % inhibition ([1]; 10 µM): 35%; LPS % inhibition ([2]; 10 µM): 25%; Fibrin % cell toxicity (primary rat microglia [4]): 1%; LPS % cell toxicity (primary rat microglia [5]): 0%
21 | CN(C)CCC=C1c2ccccc2CCc2ccccc21 [Amitriptyline] |  |  |  | 1% | 1% | Q4 | inhibition at 10 µM [1]: 14%; inhibition at 10 µM [2]: 30%
22 | CCOC(=O)OC(C)OC1=C(C(=O)Nc2ccccn2)N(C)S(=O)(=O)c2ccccc21 (centres unmarked) [Ampiroxicam] | Q4 | -9% | 14% | 1% | 0% |  | 
23 | CC(C)CN(C[C@@H](O)[C@H](Cc1ccccc1)NC(=O)O[C@H]1CCOC1)S(=O)(=O)c1ccc(N)cc1 [Amprenavir] | Q4 | -10% | 6% | 1% | 0% |  | 
24 | CN(C)c1cnccn1.O=S(=O)(O)O [Ampyzine Sulfate] |  |  |  |  |  | Q4 | Fibrin % inhibition ([1]; 10 µM): −18%; LPS % inhibition ([2]; 10 µM): 11%; Fibrin % cell toxicity (primary rat microglia [4]): 0%; LPS % cell toxicity (primary rat microglia [5]): 1%
25 | COc1cc(NS(C)(=O)=O)ccc1Nc1c2ccccc2nc2ccccc12 [Amsacrine] |  |  |  | 3% | 54% |  | inhibition at 10 µM ([1]; primary microglia HTS, fibrin stimulation, increased cell size (>800 μm^2) as marker of activation): 70%; inhibition at 10 µM ([2]; 48 h, primary microglia HTS, LPS stimulation, increased cell size (>800 μm^2) as marker of activation): 120%; Quadrant (FIG. 5b) ([3]; quadrant by fibrin and LPS inhibition in HTS of 1907 compounds): Q2
26 | CC(C)(C#N)c1cc(Cn2cncn2)cc(C(C)(C)C#N)c1 [Anastrozole] | Q4 | 31% | 16% | 1% | 0% |  | 
27 | N=c1ccn2c(n1)O[C@H]1[C@H](O)[C@@H](CO)O[C@H]12 [Ancitabine Hydrochloride] | Q4 | -4% | 27% | 1% | 1% |  | 
28 | Cl.N=C(N)NCCC[C@H](N)C(=O)O [Arginine Hydrochloride] | Q4 | 9% | 42% | 0% | 2% |  | 
29 | CCCCCCCCCCCCCCCC(=O)OC[C@H](O)[C@H]1OC(=O)C(O)=C1O [Ascorbyl Palmitate] | Q4 | 38% | 20% | 1% | 0% |  | 
30 | Cn1cnc([N+](=O)[O-])c1Sc1ncnc2nc[nH]c12 [Azathioprine] |  |  |  | 0% | 0% | Q4 | inhibition at 10 µM [1]: -14%; inhibition at 10 µM [2]: 16%
31 | CC[C@H]1OC(=O)[C@H](C)[C@@H](O[C@H]2C[C@@](C)(OC)[C@@H](O)[C@H](C)O2)[C@H](C)[C@@H](O[C@@H]2O[C@H](C)C[C@H](N(C)C)[C@H]2O)[C@](C)(O)C[C@@H](C)CN(C)[C@H](C)[C@@H](O)[C@]1(C)O [Azithromycin] | Q4 | -16% | 11% | 0% | 0% |  | 
32 | NC(CO)C(=O)NNCc1ccc(O)c(O)c1O (centres unmarked) [Benserazide] | Q4 | -16% | 8% | 0% | 0% |  | 
33 | CCOC(=O)c1ccc(N)cc1 [Benzocaine] | Q4 | -24% | 7% | 1% | 0% |  | 
34 | O=C(O)c1ccccc1 [Benzoic Acid] |  |  |  | 0% | 0% | Q4 | inhibition at 10 µM [1]: -6%; inhibition at 10 µM [2]: 6%
35 | O=C(Nc1ccc(C(=O)O)c(O)c1)c1ccccc1 [Benzoylpas] |  |  |  | 4% | 2% | Q2 | inhibition at 10 µM [1]: 107%; inhibition at 10 µM ([2]; 48 h): 87%
36 | CN1[C@@H]2CC[C@H]1C[C@@H](OC(c1ccccc1)c1ccccc1)C2 [Benztropine] |  |  |  | 1% | 0% | Q4 | inhibition at 10 µM [1]: -7%; inhibition at 10 µM [2]: 30%
37 | O=C(OCc1ccccc1)c1ccccc1 [Benzyl Benzoate] |  |  |  | 1% | 1% |  | inhibition at 10 µM ([1]; primary HTS, 10 μM, fibrin-stimulated primary microglia): 35%; inhibition at 10 µM ([2]; primary HTS, 10 μM, LPS-stimulated primary microglia): 32%; Quadrant (FIG. 5b) ([3]; primary HTS, 10 μM): Q4
